One data set deals with T1, human CRF1 receptor (Homo sapiens, UniProt P34998).
T1 construct: expressed in transfected cells; host or cells: CHO cells (membrane fraction)
T1 sequence (P34998 24-415): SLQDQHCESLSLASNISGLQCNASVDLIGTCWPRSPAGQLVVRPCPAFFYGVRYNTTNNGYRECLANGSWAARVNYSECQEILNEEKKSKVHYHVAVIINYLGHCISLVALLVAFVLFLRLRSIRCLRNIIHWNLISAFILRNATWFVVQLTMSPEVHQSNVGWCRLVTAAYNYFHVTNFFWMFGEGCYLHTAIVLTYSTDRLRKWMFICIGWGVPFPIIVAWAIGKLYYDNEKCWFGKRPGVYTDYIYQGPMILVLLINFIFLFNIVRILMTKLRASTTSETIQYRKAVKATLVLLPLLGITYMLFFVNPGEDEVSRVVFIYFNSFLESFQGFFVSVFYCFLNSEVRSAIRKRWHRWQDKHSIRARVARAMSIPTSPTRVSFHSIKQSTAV
Nature of the data set: Measurement of CRF Binding Inhibitory Rate (receptor binding experiment with 125I-CRF). Particulars: human CRF1 receptor expressing CHO cellular membrane fraction, 50 pM 125I-CRF, room temperature 1.5 hr, 0.05 nM to 10 μM of compound; read-out: IC50 values (CRF binding inhibition).

By IC50 is commonly meant the concentration that inhibits the measured activity by half. As a reminder, the melting point is the temperature, or range, at which the solid turns liquid. On to `COC(c1ccc(Cl)c2nc3n(c12)CCCN3c1ccc(Cl)cc1Cl)C1CC1` (centres unmarked) [Example 117, 9-Chloro-6-[cyclopropyl(methoxy)methyl]-1-(2,4-dichlorophenyl)-1,2,3,4-tetrahydropyrimido[1,2-a]benzimidazole], for which the melting point lay in the range of 138 to 139 °C. For the same compound, the IC50 at human CRF1 receptor is < 1000 nM.
As for `CCC(CC)c1ccc(Cl)c2nc3n(c12)CCCCN3c1ccc(Cl)cc1` [Example 23, 10-Chloro-1-(4-chlorophenyl)-7-(1-ethylpropyl)-2,3,4,5-tetrahydro-1H-[1,3]diazepino[1,2-a]benzimidazole], the melting point lay in the range of 133 to 135 °C. Also, the half-maximal inhibitory concentration (IC50) on human CRF1 receptor is < 1000 nM.
Taken in the same sequence, the figures for `Cc1cc(Cl)cc(Cl)c1N1CCn2c1nc1c(Cl)ccc(C(O)(C3CC3)C3CC3)c12` [Example 426, [8-Chloro-1-(2,4-dichloro-6-methylphenyl)-2,3-dihydro-1H-imidazo[1,2-a]benzimidazol-5-yl](dicyclopropyl)methanol] were 193 to 196 °C and < 1000 nM.
As for `CCN(CC)c1cccc2nc3n(c12)CCCN=C3c1ccc(Cl)cc1Cl` [Example 511, 1-(2,4-Dichlorophenyl)-N,N-diethyl-4,5-dihydro-3H-[1,4]diazepino[1,2-a]benzimidazol-7-amine], the melting point lay in the range of 93 to 94 °C. Further, on human CRF1 receptor, the IC50 was < 1000 nM.
